Laboratory results: patent publication US11246907B2, “Immunosuppressive agents and their use in therapy” (Norwegian University of Science and Technology, priority 2013, dated 2022)
Ends that are not written are not given here.

Experiments:
[1] = system: Akt Ser473 phosphorylation; experiment: Western blot of Akt Ser473 phosphorylation in JJN-3 cells; format: cell-based; details: 6 μM ATX-101, 4, 8, 24 h
[2] = system: peripheral blood monocytes; experiment: Multiplex (27-plex) cytokine secretion of TLR-ligand stimulated peripheral blood monocytes; format: cell-based, human; details: 4 h
Method: Measured cytokine levels were normalized to cytokine levels from monocytes stimulated with TLR ligand alone. A two fold or higher increase in cytokine level after TLR stimulation was defined as cytokine induction. […] Isolated monocytes were stimulated with 10 ng/ml LPS and 40 μg/ml polyIC alone and in combination with 4 μM ATX-101 for 4 h. […] DRAQS was used for nuclear staining. Bar, 5 μm.
Data is from one representative donor out of three; and (B-E) show multiplex analysis of cytokine levels produced by peripheral blood monocytes stimulated with 10 ng/ml LPS (B and D, same donor) and 40 μg/ml polyIC (C and E, same donor) after 4 h. (B and C) Stimulated-monocytes were treated with 4 μM ATX-101, 10 μM SB203580 (p38 MAPK inhibitor), and combination of ATX-101 and SB203580. (D and E) Stimulated-monocytes were treated with 4 μM ATX-101, 5 and 10 μM LY294002 (PI3K class I inhibitor), and combination of ATX-101 and LY294002. Measured cytokine levels were normalized to cytokine levels from monocytes stimulated with TLR ligand alone. A two fold or higher increase in cytokine level after TLR stimulation was defined as cytokine induction. # Value is too low to be visible in the column diagram; ? cytokine measurement was out of range. Data is from representative experiments out of two.
(§1) Measured cytokine levels were normalized to cytokine levels from monocytes stimulated with TLR ligand alone. A two fold or higher increase in cytokine level after TLR stimulation was defined as cytokine induction. ? Cytokine measurement was out of range. Data is from one experiment out of two.
Measured cytokine levels were normalized to cytokine levels from monocytes stimulated with TLR ligand alone. Data is from one donor. We obtained similar results for IL-6 secretion in two other donors.
as §1, with “# Value is too low to be visible in the column diagram; 0” for “?”
Peripheral blood mononuclear cells were isolated from A+ buffy coats (Blood Bank, St. Olav's University Hospital, Trondheim, Norway) by density gradient centrifugation (Lymphoprep; Axis-Shield PoC, Oslo, Norway). Mononucleated cells were seeded at 4 million cells/ml in serum-free RPMI 1640 supplemented with glutamine and gentamicin. After 60-90 min the adherent cell population was washed before cultured in medium with 10% heat-inactivated human serum (Blood Bank, St. Olav's University Hospital). ATX-101 (4 μM [Innovagen, Lund, Sweden]), ATX-A (4 μM, [Innovagen]) (ATX-A is represented in SEQ ID NO: 1206 and contains the motif RALVK (SEQ ID NO: 1207), which is not capable of interacting with PCNA), p38 inhibitor (SB203580, 10 μM, [Sigma-Aldrich]), PI3K inhibitor (LY294002, 5 and 10 μM, [Sigma-Aldrich]), and Akt inhibitor (Akt inhibitor XVIII SC66, 1 μg/ml, [Sigma-Aldrich]) were added in serum-free medium and incubated for 5 min before LPS (10 ng/ml, [Sigma-Aldrich]), polylC (40 μg/ml, [GE Healthcare, Little Chalfont, UK]), PAM3Cys (10 ng/ml, [Invivogen, San Diego, Calif., USA]) or R848 (10 μg/ml, [Invivogen]) were added in serum-containing medium. The cells were incubated for 4 h before the supernatants were harvested and frozen prior to further cytokine analysis by the 27-plex assay (Bio-Plex ProTM Human cytokine 27-plex assay).

[3] = system: Akt Ser473 phosphorylation; experiment: Western blot of Akt Ser473 phosphorylation in HaCaT cells; format: cell-based, human; details: 12 μM, 4 h; unstimulated and 2 μg/ml polyIC
Method: Protein levels were corrected for loading differences (β-tubulin) and normalized to untreated control cells. […] Bar, 5 μm.
The multiple myeloma cell lines JJN-3 (gift from J. Ball, University of Birmingham, United Kingdom) were grown in RPMI 1640 (Sigma-Aldrich, Schnelldorf, Germany) supplemented with 10% FCS, 2 mM glutamine (Sigma-Aldrich), 2.5 μg/ml amphotericin B (Sigma-Aldrich) and 100 μg/ml gentamicin (Invitrogen, Carlsbad, Calif., USA). HaCaT cells (spontaneously transformed keratinocytes) were cultured in DMEM (Sigma-Aldrich) containing FCS, glutamine, amphotericin B, and gentamicin. All cells were cultured at 37° C. in a humidified atmosphere of 5% CO2.
Mononucleated cells were seeded and stimulated as described above. JJN-3 cells were treated with ATX-101 (6 μM) for 4 h. HaCaT cells were treated with ATX-101 (12 μM), polylC (2 μg/ml), and LPS (100 ng/ml) for 4 h. […] The proteins were visualized with the Odyssey infrared imaging system (LI-COR) and quantified using Odyssey Image Studio V2. […]

In the case of Ac-MDRWLVKWKKKRKIRRRRRRRRRRR [ATX-101], the “phosphorylation of Akt” value [1] is reported as “decreased”, the “cytokine secretion, combination of ATX-101 and p38 MAPK inhibitor” value ([2]; LPS or polyIC, 4 μM ATX-101 + 10 μM SB203580) is reported as “increased reduction of most cytokines” and the “cytokine secretion, combination of ATX-101 and PI3K inhibitor LY294002” value ([2]; LPS or polyIC, 4 μM ATX-101 + 5 and 10 μM LY294002) is reported as “reduction in the secretion of some cytokines”. For the same substance, the “cytokine secretion from stimulated monocytes, single agent” value ([2]; LPS or polyIC, ATX-101 4 μM, SB203580 10 μM, LY294002 5 and 10 μM, SC66 1 μg/ml) was “reduced cytokine secretion”, the “basal level production of CXCL10” value ([2]; isolated monocytes, 4 μM) was “decreased” and the “basal level of IL-12” value ([2]; monocytes, 4 μM) was “reduced the basal level of IL-12”. For the same substance, the “secretion of LPS-induced cytokines” value ([2]; monocytes, 4 μM, 10 ng/ml LPS) was “efficiently reduced”, the “secretion of CXCL10, CCL2, CCL3 and CCL4 after TLR3 stimulation with polyIC” value ([2]; monocytes, 4 μM, 40 μg/ml polyIC) was “reduced the secretion of CXCL10, CCL2, CCL3, and CCL4” and the “Akt phosphorylation in HaCaT cells” value [3] was “reduced Akt phosphorylation in unstimulated and stimulated cells”.
